Literature values as cited in patent US20190027771A1, “ACID GAS REGENERABLE BATTERY” (Commonwealth Scientific and Industrial Research Organisation, priority 2015, published 2019).
Read-outs that look alike come from different tables or passages of the source.

Assays:
[1] = for Cathode reaction potential E: reduction of the free metal ion to the metal; for Anode reaction potential E: reduction of the metal-ammine complex to the metal and NH3

In the case of `[Zn+2]` [Zn^2+], the “Cathode reaction potential E” value [1] is given as “E = −0.763 V”.
In the case of `CC(O)CNCC(C)O` (stereo not drawn) [bis(2-hydroxypropyl)-amine, bis(2-hydroxypropyl)amine], the pKa (Table 2) is given as 9.1.
For `NCc1cccc(CN)c1` [m-Xylylenediamine], the pKa (Table 2) is listed as 9.2.
In the case of `NCCCn1ccnc1` [1-(3-aminopropyl)-imidazole, 1-(3-aminopropyl)imidazole], the pKa (Table 2) is given as 9.6.
In the case of `CCCCCN` [Amylamine], the pKa (Table 2) is given as 10.81.
For `NCCCCCCN` [hexamethylenediamine], the pKa (Table 2) is listed as 10.9 and the pKa (Table 3) is listed as 10.9.
For `N.N.N.N.[Cu+2]` [[Cu(NH3)4]^2+], the “Anode reaction potential E” value [1] is given as “E = −0.04 V”.
For `N.N.N.N.N.N.[Ni+2]` [[Ni(NH3)6]^2+], the “Anode reaction potential E” value [1] is given as “E = −0.49 V”.
For `N.N.N.N.[Hg+2]` [[Hg(NH3)4]^2+], the “Anode reaction potential E” value [1] is listed as “E = +0.283 V”.
For `N.N.N.N.[Zn+2]` [[Zn(NH3)4]^2+], the “Anode reaction potential E” value [1] is given as “E = −1.04 V”.
In the case of `N.N.N.N.N.N.[Pt+2]` [[Pt(NH3)6]^2+], the “Anode reaction potential E” value [1] is listed as “E = +0.144 V”.
In the case of `N.N.N.N.[Co+2]` [[Co(NH3)4]^2+], the “Anode reaction potential E” value [1] is given as “E = −0.422 V”.
For `[Hg+2]` [Hg^2+], the “Cathode reaction potential E” value [1] is listed as “E = +0.8535 V”.
For `N.N.[Ag+]` [[Ag(NH3)2]^+], the “Anode reaction potential E” value [1] is listed as “E = +0.37 V”.
In the case of `N.N.N.N.[Cd+2]` [[Cd(NH3)4]^2+], the “Anode reaction potential E” value [1] is given as “E = −0.622 V”.
In the case of `[Pt+2]` [Pt^2+], the “Cathode reaction potential E” value [1] is listed as “E = +1.188 V”.
For `N.N.N.N.[Pd+2]` [[Pd(NH3)4]^2+], the “Anode reaction potential E” value [1] is given as “E = 0.0 V”.
For `N[C@@H](CCC(=O)O)C(=O)O` [Glutamic acid], the pKa (Table 2) is listed as 9.47.
In the case of `NCCOCCO` [2-(2-Aminoethoxy)-ethanol, 2-(2-Aminoethoxy)ethanol], the pKa (Table 2) is listed as 9.3.
In the case of `[Cd+2]` [Cd^2+], the “Cathode reaction potential E” value [1] is given as “E = −0.403 V”.
For `[Ag+]` [Ag^+], the “Cathode reaction potential E” value [1] is given as “E = +0.80 V”.
In the case of `C[C@@H](O)[C@H](N)C(=O)O` [L-Threonine], the pKa (Table 2) is listed as 9.1.
In the case of `[Ni+2]` [Ni^2+], the “Cathode reaction potential E” value [1] is given as “E = −0.257 V”.
For `C[C@H](N)C(=O)O` [L-Alanine], the pKa (Table 2) is listed as 9.69.
For `CC1CCNCC1` [4-methylpiperidine], the pKa (Table 2) is given as 11.27.
In the case of Pyrrolidine, the pKa (Table 2) is listed as 11.35.
For `[Pd+2]` [Pd^2+], the “Cathode reaction potential E” value [1] is listed as “E = +0.915 V”.
In the case of `[Cu+2]` [Cu^2+], the “Cathode reaction potential E” value [1] is given as “E = +0.34 V”.
For `NCCCCCO` [5-Amino-1-pentanol], the pKa (Table 2) is listed as 10.5 and the pKa (Table 3) is listed as 10.5.
In the case of `[Co+2]` [Co^2+], the “Cathode reaction potential E” value [1] is given as “E = −0.277 V”.
In the case of 1,3 Diaminopropane, the pKa (Table 2) is given as 10.4 and the pKa (Table 3) is given as 10.4.
In the case of `CNCC(=O)O` [Sarcosine], the pKa (Table 2) is listed as 10.05.
